Series [1] addresses T1, 5-HT2B receptor (Homo sapiens, UniProt P41595).
T1 construct: expressed in transfected cells; host or cells: HEK293, stably transfected
Kind of series: 5-HT2B receptor radioligand binding ([3H]LSD). Conditions: read-out: 5-HT2B Receptor Ki.

The target of series [2] is T1, 5-HT2B receptor. Kind of series: cell-based. It is filed as cell-based. Conditions: for Emax: HEK293, agonist, HEK293, max dose, read-out: 5-HT2B % Act @ Max Dose; for Emax / EC50: Ca2+ flux; for EC50: agonist, HEK293. The essentials:
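FLIPR Tetra fluorescence read-out of calcium flux after compound addition. Receptor-expressing stable lines were used (HEK293 for 2A/2B; CHO with Gα15 for 1A), dye-loaded with Fluo-4 Direct and 2.5 mM final probenecid, 50 min at 37 °C.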
In general terms: Calcium assays in cells follow changes in intracellular calcium, usually with a dye or a luminescent sensor.

The next series addresses T2, 5-HT1A receptor (Homo sapiens, UniProt P08908).
T2 construct: expressed in transfected cells; host or cells: CHO cells, stably transfected
T2 sequence (P08908 1-422): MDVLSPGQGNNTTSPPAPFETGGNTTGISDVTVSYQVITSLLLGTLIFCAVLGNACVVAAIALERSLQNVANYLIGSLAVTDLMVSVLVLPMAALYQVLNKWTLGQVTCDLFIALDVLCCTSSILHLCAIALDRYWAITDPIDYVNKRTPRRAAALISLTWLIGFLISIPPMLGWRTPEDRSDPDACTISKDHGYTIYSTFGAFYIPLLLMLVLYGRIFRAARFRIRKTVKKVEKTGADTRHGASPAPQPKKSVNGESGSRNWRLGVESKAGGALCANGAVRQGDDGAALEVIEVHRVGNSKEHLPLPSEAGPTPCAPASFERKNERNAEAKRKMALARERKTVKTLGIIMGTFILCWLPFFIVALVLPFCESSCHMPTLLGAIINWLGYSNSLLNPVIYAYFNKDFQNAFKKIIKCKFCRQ
Description: cell-based. Conditions: agonist, Ca2+ flux; for Emax: CHO, CHO cells with Gα15, max dose, read-out: 5-HT1A % Act @ Max Dose; for EC50: CHO cells with Gα15. The gist of the method:
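Receptor agonism was assessed as intracellular calcium mobilization in stably transfected cells, with CHO cells additionally carrying Gα15 for the 5-HT1A readout. Calcium was monitored with Fluo-4 Direct dye.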

Series [3] is described as follows: in vitro. It is filed as in vitro ADME, human. The settings on record: for microsomal CLint / half-life: human, microsomes; for microsomal CLint: read-out: Intrinsic clearance (Clint); for half-life: read-out: half-life (t1/2).
Series [4] in a line: in vitro. Conditions: for microsomal CLint / half-life: mouse, microsomes; for microsomal CLint: read-out: Intrinsic clearance (Clint); for half-life: read-out: half-life (t1/2). It is filed as in vitro ADME, mouse. The source says:
MLM Stability Pooled MLM from male CD-1 mice (BIOIVT M00501) were used.

The nature of series [5]: in vitro. It is filed as in vitro ADME, rat. Conditions: for microsomal CLint / half-life: rat, microsomes; for microsomal CLint: read-out: Intrinsic clearance (Clint); for half-life: read-out: half-life (t1/2). The source says:
RLM Stability Pooled RLM from male Sprague-Dawley rats (Xenotech R1000) were used.

Series [6] has as its target T3, 5-HT2A receptor (Homo sapiens, UniProt P28223). Kind of series: biochemical. It is filed as binding. On the set-up: expressed in transfected cells; host or cells: HEK293, stably transfected. The settings on record: [3H]ketanserin 1 nM; HEK293 stable cell line; 1 h, 25 °C. The essentials: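 Test compounds competed with [^3H]ketanserin for receptor binding, and affinity was derived from the radioligand displacement.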

The target of series [7] is T3, 5-HT2A receptor. Kind of series: cell-based. It is filed as cell-based. Further details: expressed in transfected cells; host or cells: HEK293, stably transfected. The settings on record: Ca2+ flux; for Emax: HEK293, agonist, HEK293, max dose, read-out: 5-HT2A % Act @ Max Dose; for EC50: agonist, HEK293. The essentials:
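Agonism measured as calcium flux on FLIPR Tetra. Receptor lines: HEK293 for 5-HT2A and 5-HT2B, CHO with Gα15 for 5-HT1A; dye loading with Fluo-4 Direct and probenecid (2.5 mM final) ran 50 min at 37 °C before compound addition and signal reading.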

The target of the next series is T4, 5-HT2C receptor (Homo sapiens, UniProt P28335).
T4 sequence (P28335 33-458): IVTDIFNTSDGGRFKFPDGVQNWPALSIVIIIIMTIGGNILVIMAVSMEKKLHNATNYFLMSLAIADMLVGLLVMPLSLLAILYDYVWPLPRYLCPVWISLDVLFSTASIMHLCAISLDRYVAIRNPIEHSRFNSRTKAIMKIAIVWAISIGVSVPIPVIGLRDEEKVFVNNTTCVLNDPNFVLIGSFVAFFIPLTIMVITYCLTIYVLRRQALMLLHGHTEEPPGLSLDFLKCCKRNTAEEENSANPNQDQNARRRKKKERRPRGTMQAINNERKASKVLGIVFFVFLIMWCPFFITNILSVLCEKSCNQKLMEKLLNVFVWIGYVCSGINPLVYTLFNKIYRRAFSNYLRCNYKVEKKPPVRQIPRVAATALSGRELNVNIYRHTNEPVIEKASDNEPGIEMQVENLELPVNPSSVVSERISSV
Description: cell-based. Conditions: agonist, Ca2+ flux, Eurofins DiscoverX protocol, max dose; read-out: 5-HT2C % Act @ Max Dose.

Series [8] deals with T3, 5-HT2A receptor. Kind of series: cell-based. It is filed as cell-based. The settings on record: beta-arrestin recruitment; for Emax: agonist, max dose, read-out: 5-HT2A Arrestin % Act @ Max Dose. The essentials:
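Agonist activity expressed as percent of maximal control ligand signal after vehicle subtraction, from chemiluminescence (RLU). Cells carry ProLink-tagged 5-HT2A plus β-arrestin fused to β-gal deletion mutant; ligand-driven arrestin binding restores β-galactosidase activity (PathHunter). Cells pre-incubated at 37° C.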
For orientation: Recruitment of arrestin is a read-out of receptor activation apart from second messengers.

For another series, the system named is C57BL/6 mice. Description: Mouse head twitch response (HTR) assay (observer-counted). It is filed as in vivo. Conditions: SC, 20 min, most efficacious dose. The method, then:
Agonists of the 5-HT2A receptor are well known to induce this effect in rodents and the potency of this HTR is correlated with hallucinogenic potency in humans.
Animals. Adult male C57BL/6 mice, aged 6-8 weeks (body weight 20-25 g) were used in this experiment. Animals were housed under controlled temperatures and 12-hour light/dark cycles (lights on between 07:00-19:00 h), with ad libitum food and water. This study was carried out in strict accordance with the requirements of the Committee for the Purpose of Control and Supervision of Experiments on Animals (CPCSEA), India. All efforts were made to minimize suffering.
Procedure. Mice were administered one dose of the drug and immediately placed into a small open field for behavioral observation. Animals were observed continuously for 20 mins and the number of head twitches (HTs) were counted by an observer blind to the treatment condition.
Statistical Analysis. The data points shown are the mean±standard error of the mean (SEM). Analysis was performed using GraphPad Prism 6. Curves were fit using a non-linear gaussian distribution to calculate ED50 and Emax values.
Additional disclosed compounds were tested in the mouse head twitch response (HTR) assay according to the procedure described in Example 57 (administered SC). […] Lastly, compounds with much larger benzyl and phenethyl substituents on the amine nitrogen (e.g., 10 and 11) were low efficacy in this assay, consistent with their bias toward arrestin signaling (see Example 55).

The mark [9] stands for this setting: HLM 0.50 mg/mL, NADPH 1 mM, 1 μM compound, pH 7.4, 37° C., 60 min.
The mark [10] stands for this setting: MLM (male CD-1) 0.50 mg/mL, NADPH 1 mM, 1 μM compound, pH 7.4, 37° C., 60 min.
[11] abbreviates: RLM (male Sprague-Dawley) 0.50 mg/mL, NADPH 1 mM, 1 μM compound, pH 7.4, 37° C., 60 min.

Each structure is given as a SMILES string. Read-outs that look alike come from different tables or passages of the source. Bounds are passed on as bounds.

The term Ki denotes the dissociation constant of the complex between target and ligand, obtained from inhibition or displacement. A word on the EC50: it is the concentration at which the effect is half-maximal. A high value points to a need for much substance.

T1 sequence (P41595 whole entry): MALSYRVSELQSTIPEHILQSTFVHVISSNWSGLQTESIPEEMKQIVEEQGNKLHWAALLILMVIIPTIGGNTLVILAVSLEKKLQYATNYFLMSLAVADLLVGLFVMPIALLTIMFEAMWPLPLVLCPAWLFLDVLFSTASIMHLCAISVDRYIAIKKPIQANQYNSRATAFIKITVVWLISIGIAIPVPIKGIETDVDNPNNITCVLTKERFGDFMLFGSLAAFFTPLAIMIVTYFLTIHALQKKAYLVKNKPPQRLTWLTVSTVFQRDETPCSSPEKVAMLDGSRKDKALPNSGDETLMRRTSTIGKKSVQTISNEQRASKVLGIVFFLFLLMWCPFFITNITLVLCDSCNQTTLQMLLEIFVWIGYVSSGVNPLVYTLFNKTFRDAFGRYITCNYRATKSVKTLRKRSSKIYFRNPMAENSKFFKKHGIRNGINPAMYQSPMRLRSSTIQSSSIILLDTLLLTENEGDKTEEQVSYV
T3 sequence (P28223 whole entry): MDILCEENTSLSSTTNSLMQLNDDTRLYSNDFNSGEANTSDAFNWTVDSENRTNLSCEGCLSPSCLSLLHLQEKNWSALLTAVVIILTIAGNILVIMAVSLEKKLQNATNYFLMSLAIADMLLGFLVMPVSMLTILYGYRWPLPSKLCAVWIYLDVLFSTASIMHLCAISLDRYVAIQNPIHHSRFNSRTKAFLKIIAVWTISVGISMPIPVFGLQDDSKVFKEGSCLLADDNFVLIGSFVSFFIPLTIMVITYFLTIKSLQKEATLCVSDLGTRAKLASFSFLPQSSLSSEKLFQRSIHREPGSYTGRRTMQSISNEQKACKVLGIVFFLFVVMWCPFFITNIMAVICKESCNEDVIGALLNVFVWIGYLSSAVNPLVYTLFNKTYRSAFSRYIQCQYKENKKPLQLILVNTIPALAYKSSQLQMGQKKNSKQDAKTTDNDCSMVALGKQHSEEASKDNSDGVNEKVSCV

For `CCN(CC)C(=O)[C@@H]1C=C2c3cccc4[nH]cc(c34)C[C@H]2N(CC2CCCC2)C1` [Compound 90, (6aR,9R)-7-(cyclopentylmethyl)-N,N-diethyl-4,6,6a,7,8,9-hexahydroindolo[4,3-fg]quinoline-9-carboxamide], the Ki at 5-HT2B receptor [1] was found to be 2.08 nM; on 5-HT2A receptor [6] it was 2.35 nM. Also, the Emax came out at 12% at 5-HT2B receptor [2], 76.8% on 5-HT1A receptor and 55.8% on 5-HT2A receptor [7]. The EC50 was greater than 10 µM on 5-HT2B receptor [2], 42.6 µM on 5-HT1A receptor and 642 nM at 5-HT2A receptor [7]. The microsomal CLint in the series “in vitro [3]” (setting [9]) came to 140 µL/min/mg; in the series “in vitro [4]” (setting [10]), 649 µL/min/mg; in the series “in vitro [5]” (setting [11]), 370 µL/min/mg. Besides, the half-life worked out at 9.9 min in “in vitro [3]” (setting [9]), 2.1 min in “in vitro [4]” (setting [10]) and 3.7 min in “in vitro [5]” (setting [11]).
Take `CCC[C@@H](C)NC(=O)[C@@H]1C=C2c3cccc4[nH]cc(c34)C[C@H]2N(CCC)C1` [Compound 7, (6aR,9R)—N—((R)-pentan-2-yl)-7-propyl-4,6,6a,7,8,9-hexahydroindolo[4,3-fg]quinoline-9-carboxamide]: the Emax on 5-HT2B receptor [2] was found to be 94.8%; on 5-HT2C receptor, 115%; at 5-HT1A receptor, 107%; at 5-HT2A receptor [8], 110%; at 5-HT2A receptor [7] it was 94.5%. The “selectivity for 5-HT2A over 5-HT2B” value at 5-HT2B receptor [2] (functional, compared to closest N-methyl counterparts Int8, Int11, Int17) is “more selective for 5-HT2A over 5-HT2B”. Besides, the “5-HT2A arrestin agonist class” value at 5-HT2A receptor [8] is given as “full agonists”. Also, the “HTR at most efficacious dose (bound)” value with C57BL/6 mice is greater than 15 HTR. In the series “in vitro [3]”, the “stability in HLM” value is given as “much lower stability (higher clearance)”. Further, the “half-life (t1/2)” value in the series “in vitro [3]” (setting [9]) is 1.65 min; in the series “in vitro [4]” (setting [10]), 0.541 min; in the series “in vitro [5]” (setting [11]), 1.612 min. The “stability in MLM” value in “in vitro [4]” is “much lower stability (higher clearance)”. Also, in “in vitro [5]”, the “stability in RLM” value is “much lower stability (higher clearance)”.
On to `CCN(CC)C(=O)[C@@H]1C=C2c3cccc4[nH]cc(c34)C[C@H]2N(CC2CCCCC2)C1` [Compound 89, (6aR,9R)-7-(cyclohexylmethyl)-N,N-diethyl-4,6,6a,7,8,9-hexahydroindolo[4,3-fg]quinoline-9-carboxamide], for which the Ki was 9.67 nM on 5-HT2B receptor [1] and 1.67 nM at 5-HT2A receptor [6]. Moreover, the values for the Emax at 5-HT2B receptor [2], on 5-HT1A receptor and on 5-HT2A receptor [7] were 11.5%, 84.4% and 51.8%, respectively. Besides, the EC50 on 5-HT2B receptor [2] is greater than 10 µM; on 5-HT1A receptor it was greater than 100 µM; on 5-HT2A receptor [7], 839 nM. For the same molecule, the microsomal CLint turned out to be 104 µL/min/mg in “in vitro [3]” (setting [9]), 572 µL/min/mg in “in vitro [4]” (setting [10]) and 244 µL/min/mg in “in vitro [5]” (setting [11]). For the same molecule, the half-life in “in vitro [3]” (setting [9]) is 13.3 min; in “in vitro [4]” (setting [10]) it was 2.4 min; in “in vitro [5]” (setting [11]), 5.7 min.
On to `CC[C@@H](C)NC(=O)[C@@H]1C=C2c3cccc4[nH]cc(c34)C[C@H]2N(CC)C1` [Compound 5, (6aR,9R)—N—((R)-sec-butyl)-7-ethyl-4,6,6a,7,8,9-hexahydroindolo[4,3-fg]quinoline-9-carboxamide], for which the Emax at 5-HT2B receptor [2] came out at 84.8%; at 5-HT2C receptor, 114%; at 5-HT1A receptor, 108%; at 5-HT2A receptor [8] it was 106%; at 5-HT2A receptor [7], 103%. Besides, the “5-HT2A arrestin agonist class” value at 5-HT2A receptor [8] was “full agonists”. Further, the “HTR at most efficacious dose (bound)” value in the series with C57BL/6 mice is recorded as greater than 15 HTR. In addition, in the series “in vitro [3]”, the “stability in HLM” value is “much lower stability (higher clearance)”. Besides, the “stability in MLM” value in “in vitro [4]” is “much lower stability (higher clearance)”. Further, in the series “in vitro [5]”, the “stability in RLM” value was “much lower stability (higher clearance)”.

For the origin of these results see US20260317319A1, “NOVEL ERGOLINES AND METHODS OF TREATING MOOD DISORDERS” (Gilgamesh Pharma Inc., priority 2023, published 2026).
